Measured values taken from patent US7074447B2 (Laboratories Miret, S.A., priority 2001, dated 2006).

Key:
[1] = tested on: Bacillus subtilis (CECT 356); test: minimum inhibition concentration and Kull synergy index of LAE / potassium sorbate; assay type: cell-based; details: for SI, synergy index: <1 synergism, 1 addition, >1 antagonism
Method: The invention is now explained by a number of examples. In these examples LAE and sorbate alone and in a number of different combinations have been investigated against a number of bacterial preparations. For the analysis usually an internal method was used. Conditions and medium were Mueller Hinton broth (pH 7.4) or (pH 5.0) for bacteria, Sabouraud broth (pH 5.8) for yeast and Sabouraud medium for moulds. […] The interaction of the two components of the antimicrobial mixture is calculated according to the method described by Kull et al. (Kull […]. and Mayer R. L., Applied Microbiology, 1961; 6:538-541). According to this method the so-called synergy index is calculated according to the following formula: Synergy index […]. […] All indicated symbols indicate a particular concentration leading to a particular end point, in this case the inhibition of growth of Bacillus subtilis, so that the selected end point is in fact the minimal inhibitory concentration (mic).

[2] = tested on: Gram-Positive Bacteria, Gram-Negative Bacteria, Moulds and Yeasts; test: activity of LAE against listed microorganisms; assay type: cell-based; details: strains listed in b7
From the text: • Arthrobacter oxydans ATCC 8010 • Bacillus cereus var mycoide ATCC 11778 • Bacillus subtilis ATCC 6633 • Bacillus megaterium CECT 44 • Clostridium perfringens ATCC 77454 • Clostridium perfringens CECT 486 • Listeria monocytogenes ATCC 7644 • Staphylococcus aureus ATCC 6538 • Micrococcus luteus ATCC 9631 • Lactobacillus delbrueckii ssp lactis CECT 372 Gram-Negative Bacteria • Alcaligenes faecalis ATCC 8750 • Bordetella bronchiseptica ATCC 4617 • Citrobacter freundii ATCC 22636 • Citrobacter intermedium CECT 401 • Enterobacter aerogenes CECT 689 • Escherichia coli ATCC 8739 • Escherichia coli 0157H7 • Klebsiella pneumoniae var pneumoniae CECT 178 • Proteus mirabilis CECT 170 • Pseudomonas aeruginosa ATCC 9027 • Salmonella typhimurium ATCC16028 • Serratia marcenses CECT 274 • Mycobacterium phlei ATCC 41423 Moulds and Yeasts • Aspergillus niger ATCC14604 • Aureobasidium pullulans ATCC 9348 • Cladosporium cladosporioides ATCC 16022 • Gliocadium virens ATCC 4645 • Chaetonium globosum ATCC 6205 • Penicillium chrysogenum CECT 2802 • Penicillium funiculosum CECT 2914 • Penicillium camemberti CECT 2267 • Candida albicans ATCC 10231 • Rhodotorula rubra CECT 1158 • Saccharomyces cerevisiae ATCC 9763

[3] = pH 7.4, propylene glycol solutions

CCCCCCCCCCCC(=O)N[C@@H](CCCNC(=N)N)C(=O)OCC.Cl [LAE, L-arginine, N^α-lauroyl-ethylester monohydrochloride]
QLAE, minimum inhibition concentration of LAE as single antimicrobial ([1]; pH 5.0): 29.3 | Qlae, minimum inhibition concentration of LAE in the mixture ([1]; pH 5.0): 29.3 | Qlae/QLAE ([1]; pH 5.0): 1.00 | Qs, minimum inhibition concentration of potassium sorbate in the mixture ([1]; pH 5.0): 0 | Qs/QS ([1]; pH 5.0): 0.00 | SI, synergy index ([1]; pH 5.0): 1.00 | QLAE, minimum inhibition concentration of LAE as single antimicrobial [1, 3]: 12.8 | Qlae, minimum inhibition concentration of LAE in the mixture [1, 3]: 12.8 | Qlae/QLAE [1, 3]: 1.00 | Qs, minimum inhibition concentration of potassium sorbate in the mixture [1, 3]: 0 | Qs/QS [1, 3]: 0.00 | SI, synergy index [1, 3]: 1.00 | activity against the listed microorganisms [2]: activity
